From ChEMBL document CHEMBL3885861, “Open TG-GATES”

Species on record: Rattus norvegicus
Assay: Open TG-GATES - Regimen: Single
Type: toxicity, organism-based, Sprague-Dawley
Design: regimen Single, gender Male, age 6 weeks
Settings: in vivo, po, 0 mg/kg, route gavage, dose level Control; for APTT / Bas / Eos / Fbg / Ht / Lym / MCHC / MCV / Mono / PT / Plat / RBC / Ret / WBC / Hb: tissue Blood; for KIDNEY_L / KIDNEY_R / KIDNEY_TOTAL: tissue Kidney; for LIVER: tissue Liver; for ALP / ALT / AST / BUN / CRE / DBIL / GLC / IP / K / LDH / RALB / TBIL / TC / TP / gamma-GTP / PL: tissue Plasma

Question: Which results are given for `CN(C)CCCN1c2ccccc2CCc2ccccc21` [IMIPRAMINE]?
Answer: TERMINAL_BW (3 h): 203.9 g; APTT (3 h): 16.9 s; Bas (3 h): 0.2%; Eos (3 h): 1%; Fbg (3 h): 270.6 mg/dL; Ht (3 h): 40.9%; Lym (3 h): 79.2%; MCHC (3 h): 32.3%; MCV (3 h): 64.7 fL; Mono (3 h): 2.8%; PT (3 h): 15.9 s; Plat (3 h): 112.7 x10_4/uL; RBC (3 h): 632.8 x10_4/ul; Ret (3 h): 8.2%; WBC (3 h): 81.7 x10_2/uL; KIDNEY_L (3 h): 0.9 g; KIDNEY_R (3 h): 0.9 g; KIDNEY_TOTAL (3 h): 1.7 g; LIVER (3 h): 9.1 g; ALP (3 h): 1571.6 IU/L; ALT (3 h): 52 IU/L; AST (3 h): 84.6 IU/L; BUN (3 h): 9 mg/dL; CRE (3 h): 0.2 mg/dL; DBIL (3 h): 0.01 mg/dL; GLC (3 h): 183.2 mg/dL; IP (3 h): 8.9 mg/dL; K (3 h): 4 meq/L; LDH (3 h): 111 IU/L; RALB (3 h): 2.6 g/dL; TBIL (3 h): 0.07 mg/dL; TC (3 h): 84 mg/dL; TP (3 h): 5.4 g/dL; gamma-GTP (3 h): 1.6 IU/L; TERMINAL_BW (6 h): 201.5 g; APTT (6 h): 15.5 s; Bas (6 h): 0.4%; Eos (6 h): 0.8%; Fbg (6 h): 326 mg/dL; Hb (6 h): 12.8 g/dL; Ht (6 h): 39.2%; Lym (6 h): 73.2%; MCHC (6 h): 32.5%; MCV (6 h): 63.9 fL; Mono (6 h): 3%; PT (6 h): 15.8 s; Plat (6 h): 112.2 x10_4/uL; RBC (6 h): 614.8 x10_4/ul; Ret (6 h): 7.6%; WBC (6 h): 95 x10_2/uL; KIDNEY_L (6 h): 0.9 g; KIDNEY_R (6 h): 0.9 g; KIDNEY_TOTAL (6 h): 1.9 g; LIVER (6 h): 9.1 g; ALP (6 h): 1465 IU/L; ALT (6 h): 52.8 IU/L; AST (6 h): 99.2 IU/L; BUN (6 h): 8.4 mg/dL; CRE (6 h): 0.2 mg/dL; GLC (6 h): 176.2 mg/dL; IP (6 h): 9.4 mg/dL; K (6 h): 4 meq/L; LDH (6 h): 80.4 IU/L; PL (6 h): 133.6 mg/dL; RALB (6 h): 2.5 g/dL; TBIL (6 h): 0.07 mg/dL; TC (6 h): 72.6 mg/dL; TP (6 h): 5.3 g/dL; gamma-GTP (6 h): 1.2 IU/L; TERMINAL_BW (9 h): 200.5 g; APTT (9 h): 16 s; Bas (9 h): 0.4%; Eos (9 h): 1%; Fbg (9 h): 291.6 mg/dL; Hb (9 h): 12.9 g/dL; Ht (9 h): 40.1%; Lym (9 h): 80.8%; MCHC (9 h): 32.3%; MCV (9 h): 65.1 fL; Mono (9 h): 2.4%; PT (9 h): 15.3 s; Plat (9 h): 110.6 x10_4/uL; RBC (9 h): 615.4 x10_4/ul; Ret (9 h): 8.2%; WBC (9 h): 76.7 x10_2/uL; KIDNEY_L (9 h): 0.9 g; KIDNEY_R (9 h): 0.9 g; KIDNEY_TOTAL (9 h): 1.8 g; LIVER (9 h): 8.2 g; ALP (9 h): 1396.6 IU/L; ALT (9 h): 37.4 IU/L; AST (9 h): 69.6 IU/L; BUN (9 h): 8 mg/dL; CRE (9 h): 0.1 mg/dL; DBIL (9 h): 0.008 mg/dL; GLC (9 h): 178 mg/dL; IP (9 h): 9.9 mg/dL; K (9 h): 4.1 meq/L; LDH (9 h): 59 IU/L; PL (9 h): 136 mg/dL; RALB (9 h): 2.5 g/dL; TBIL (9 h): 0.068 mg/dL; TC (9 h): 74.4 mg/dL; TP (9 h): 5.2 g/dL; gamma-GTP (9 h): 1 IU/L; TERMINAL_BW (24 h): 217.3 g; APTT (24 h): 17.1 s; Bas (24 h): 0.2%; Eos (24 h): 1.2%; Fbg (24 h): 265.2 mg/dL; Ht (24 h): 41.7%; Lym (24 h): 76.2%; MCHC (24 h): 32.1%; MCV (24 h): 66.7 fL; Mono (24 h): 2.8%; PT (24 h): 16.1 s; Plat (24 h): 114.2 x10_4/uL; RBC (24 h): 626.2 x10_4/ul; Ret (24 h): 7.8%; WBC (24 h): 93.4 x10_2/uL; KIDNEY_L (24 h): 0.9 g; KIDNEY_R (24 h): 0.9 g; KIDNEY_TOTAL (24 h): 1.8 g; LIVER (24 h): 10.2 g; ALP (24 h): 1689.2 IU/L; ALT (24 h): 59 IU/L; AST (24 h): 83.4 IU/L; CRE (24 h): 0.2 mg/dL; DBIL (24 h): 0.02 mg/dL; GLC (24 h): 185.4 mg/dL; IP (24 h): 8.1 mg/dL; K (24 h): 3.9 meq/L; LDH (24 h): 75.2 IU/L; RALB (24 h): 2.6 g/dL; TBIL (24 h): 0.06 mg/dL
